# Read-outs that look alike come from different tables or passages of the source.
# Tests used:
# [1] = Clinical observation during the rat PK experiments; format: in vivo, Sprague-Dawley rats; details: single dose IV 0.5, PO 2.5, SC 1.0, 7.0 or 35.0 mg/kg, SD rats
# Method: To compare PK values of the three different administration routes, 11 male Sprague-Dawley® (SD) rats (6–8 weeks old) were administered a single dose of ANA either via IV injection (n = 3, 0.5 mg/kg), PO (n = 3, 2.5 mg/kg), or SC injection (n = 5, 1.0 mg/kg). To monitor the sustained release of SC ANA in the long term, 10 male SD rats were treated with a single dose of either 7.0 mg/kg (n = 5) or 35.0 mg/kg (n = 5). The rats were purchased from SPF Biotechnology Co. Ltd. (Beijing, China). Animals were acclimated to the test facility for at least three days, during which their general health was checked by veterinary staff or other authorized personnel. Animals were kept in polycarbonate cages containing absorbent corncob bedding, with a maintained temperature range of +20–25 °C and a 12-h light/dark cycle. Animals had access to food and drinking water ad libitum during acclimation and the experiment. At the end of the study, the rats were euthanized by exposure to an increasing concentration of CO2.
# [2] = Long-term plasma exposure after a single SC ANA dose (56-day follow-up), plasma LC-MS/MS; format: in vivo, Sprague-Dawley rats; details: for AUC(0-inf) / AUC(0-t) / half-life / Cmax / Tmax: Sprague-Dawley, rat, male SD rats, n = 5, 56-day follow-up; for Cmax: read-out: Cmax; for Tmax: read-out: Tmax
# Method: To monitor the sustained release of SC ANA in the long term, 10 male SD rats were treated with a single dose of either 7.0 mg/kg (n = 5) or 35.0 mg/kg (n = 5). The rats were purchased from SPF Biotechnology Co. Ltd. (Beijing, China). Animals were acclimated to the test facility for at least three days, during which their general health was checked by veterinary staff or other authorized personnel. Animals were kept in polycarbonate cages containing absorbent corncob bedding, with a maintained temperature range of +20-25 °C and a 12-h light/dark cycle. Animals had access to food and drinking water ad libitum during acclimation and the experiment. At the end of the study, the rats were euthanized by exposure to an increasing concentration of CO2. […] The SC formulation was prepared by dissolving micronized ANA (5 μm particle size) in an oily triglyceride ester of saturated caprylic and capric fatty acids and glycerol (Miglyol® 810 N, IOI Oleo GmbH, Hamburg, Germany). […] To evaluate plasma concentration-time profiles, blood samples were collected from the jugular vein in EDTA tubes and stored at -70 °C until further analysis. […] In the second PK analysis in rats with a longer follow-up time, blood samples were collected at 0, 30 min, 1 […], and 56 d after dosage. SD rat plasma was analyzed for ANA, 3-OH-ANA, and RL603 concentrations by Pharmaron (Beijing, China). ANA, 3-hydroxy-anagrelide (CAS No. 733043-41-9, Cat. No. sc-206647, Santa Cruz Biotechnology, Inc., Dallas, TX), and RL603 (CAS No. 327602-34-6, Cat. No. sc-391661, Santa Cruz Biotechnology, Inc., Dallas, TX) were used as reference items in calibration standards and quality control (QC) samples. The HPLC and the MS/MS (LCMS-8060) instruments were both from SHIMADZU (Kyoto, Japan), and the column used was a Raptor Biphenyl column (2.7 μm, 50 × 2.1 mm, Restek, Bellefonte, PA). The desired serial concentrations of working solutions were achieved by diluting analyte stock solution with 50% acetonitrile in water. […] QC samples at 0.5, 1, 2, 50, and 800 ng/mL were prepared independently of those used for the calibration curves. These QC samples were prepared on the day of analysis in the same way as calibration standards. Carbamazepine (CAS No. 298-46-4, Sigma-Aldrich, St. Louis, MO) was used as an internal standard for all analytes. Altogether, 55 μL of standards, 55 μL of QC samples, and 55 μL of test samples (comprising 50 μL of plasma and 5 μL of blank solution) were added to 200 μL of acetonitrile containing an internal standard mixture to precipitate protein. The samples were then vortexed for 30 seconds. After centrifugation at 4000 × g (+4 °C) for 5 min, the supernatant was diluted threefold with water, and 2 μL of the diluted supernatant was injected into the LC/MS/MS system for quantitative analysis. The transitions were 256.00-198.90 m/z for anagrelide hydrochloride, 272.00-198.95 m/z for 3-hydroxy anagrelide, 216.00-198.95 m/z for RL603, and 237.20-194.10 m/z for carbamazepine. […] Plasma drug concentration-time profiles were drawn by the average plasma concentrations at specific time points using Microsoft Excel (Redmond, WA). […] Certara, Princeton, NJ) software. Averages of each variable were used when PK values were compared.
# [3] = analyte in plasma after single SC ANA dose 7 mg/kg
# [4] = analyte in plasma after single SC ANA dose 35 mg/kg
structure (smiles),measurement,setting,value
"O=C1CN2Cc3c(ccc(Cl)c3Cl)N=C2N1 [Anagrelide, imidazo‐[2,1‐b] quinazolin‐2[3H]‐one, 6,7‐dichloro‐1,5‐dihydro, monohydro‐chloride]",clinical symptoms,[1],No abnormal clinical symptoms were observed
same,AUC(0-inf),[2]; [3],1570 ± 388 ng·h/mL
same,AUC(0-t),[2]; [3],1460 ± 148 ng·h/mL
same,half-life,[2]; [3],293 h
same,Cmax,[2]; [3],6.78 ± 1.86 ng/mL
same,Tmax,[2]; [3],1 h
same,AUC(0-inf),[2]; [4],9480 ± 5270 ng·h/mL
same,AUC(0-t),[2]; [4],6350 ± 666 ng·h/mL
same,half-life,[2]; [4],336 h
same,Cmax,[2]; [4],21.8 ± 8.62 ng/mL
same,Tmax,[2]; [4],2.2 ± 1.64 h
same,time plasma concentrations were detected after a single administration,[2]; single SC administration in rats (7 or 35 mg/kg),up to 56 days

# Source: publication PMC11816618, “Pharmacokinetic profile and in vivo anticancer efficacy of anagrelide administered subcutaneously in rodents” (Drug Delivery, 2025)
